Calls of active or inactive are those of the source. The calls are words filed in the database; no cut-off is given here.
Tested on: Cortical neurone
Assay: Induction of neurite outgrowth in rat cortical neurons at 10 uM after 4 days

| Compound | Activity |
| --- | --- |
| C[C@]12COC(=O)C[C@@]3(CC(=O)[C@]1(C)O)[C@]2(O)CC[C@]3(C)O | inactive |
| CO[C@@]12C[C@]34CC(=O)O[C@]3(C[C@@H](O)[C@H]4C)[C@](C)(CO1)[C@@H]2C | inactive |
| C[C@@H]1CC(=O)[C@@]2(O)[C@]13CC(=O)OC[C@@]2(C)[C@@](C)(O)C(=O)C3 | inactive |
| C[C@@H]1[C@H](O)[C@H](O)[C@@]2(O)[C@]13CC(=O)OC[C@@]2(C)[C@H](C)C(=O)C3 | inactive |
| C[C@@H]1C[C@H](O)[C@@]23O[C@@]4(O)C[C@@]12CC(=O)OC[C@@]3(C)[C@H]4C (relative stereo) | inactive |
| C[C@@H]1[C@H]2C[C@]3(CC(=O)O2)C(=CC(=O)[C@@H]3C)[C@]1(C)CO (relative stereo) | inactive |
| C[C@@H]1[C@H](O)C[C@]23OC(=O)C[C@]12C[C@]1(O)OC[C@]3(C)[C@@H]1C | inactive |
| C[C@]12COC(=O)C[C@@]3(CC(=O)[C@]1(C)O)[C@]2(O)[C@@H](O)C[C@]3(C)O | inactive |
| C[C@@H]1C(=O)C=C2[C@]13CC(=O)O[C@H](C3)[C@@H](C)[C@@]2(C)CO (relative stereo) | inactive |
| C[C@@H]1C[C@H](O)[C@@]2(O)[C@]13CC(=O)OC[C@@]2(C)[C@H](C)C(=O)C3 | inactive |
| C[C@@H]1C[C@H](O)[C@@]2(O)[C@]13CC(=O)O[C@H](C3)[C@@H](C)[C@@]2(C)CO | inactive |
| C[C@@H]1C(=O)C[C@]23CC(=O)OC[C@]1(C)[C@@]2(O)[C@@H](O)C[C@]3(C)O | inactive |
| C[C@@H]1C[C@H](O)[C@@]2(O)[C@]13CC(=O)OC[C@@]2(C)[C@@](C)(O)C(=O)C3 | inactive |

Source: ChEMBL document CHEMBL1146532, “Seco-prezizaane-type sesquiterpenes and an abietane-type diterpene from Illicium minwanense” (J Nat Prod, 2003)
